Our source for the IC50 values is patent US11014920B2, “Factor XIIa inhibitors” (Merck Sharp & Dohme Corp., priority 2016, dated 2021).

SMILES strings stand for the structures.

Chain of purified human Factor XIIa (P00748 373-615): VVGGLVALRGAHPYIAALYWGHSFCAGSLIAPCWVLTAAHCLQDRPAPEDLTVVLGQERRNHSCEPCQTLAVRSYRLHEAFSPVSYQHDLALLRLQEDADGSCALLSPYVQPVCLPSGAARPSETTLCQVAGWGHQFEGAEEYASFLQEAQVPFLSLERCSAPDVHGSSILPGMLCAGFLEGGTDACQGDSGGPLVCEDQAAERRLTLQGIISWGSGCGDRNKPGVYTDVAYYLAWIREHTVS
Chain of purified human Factor XIIa (P00748 20-372 partner): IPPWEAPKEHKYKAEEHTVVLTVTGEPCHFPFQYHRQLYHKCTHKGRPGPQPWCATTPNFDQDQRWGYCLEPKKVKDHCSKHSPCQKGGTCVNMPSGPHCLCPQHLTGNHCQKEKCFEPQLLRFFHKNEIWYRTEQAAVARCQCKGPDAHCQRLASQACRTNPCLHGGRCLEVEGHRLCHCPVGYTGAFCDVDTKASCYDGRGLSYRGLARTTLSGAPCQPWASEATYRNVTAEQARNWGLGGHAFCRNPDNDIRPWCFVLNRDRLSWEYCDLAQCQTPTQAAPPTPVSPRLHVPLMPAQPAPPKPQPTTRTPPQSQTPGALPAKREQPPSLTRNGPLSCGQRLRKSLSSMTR

This experiment has as its target purified human Factor XIIa (Homo sapiens (Human), UniProt P00748). The experiment in a line: Factor XIIa assay. It counts as biochemical. The conditions noted are these: substrate n-Acetyl-Lys-Pro-Arg-AFC 100 μM, pH 7.4, read-out: FXIIa IC50. The protocol:
“FXIIa IC50(nm)” is Human Factor XIIa IC50 (nm).
The effectiveness of a compound of the present invention as an inhibitor of Coagulation Factor XIIa can be determined using a relevant purified serine protease, and an appropriate synthetic substrate. The rate of hydrolysis of the chromogenic or fluorogenic substrate by the relevant serine protease was measured both in the absence and presence of compounds of the present invention. Assays were conducted at room temperature or at 37° C. […] A decrease in the rate of fluorescence change in the presence of inhibitor is indicative of enzyme inhibition. Such methods are known to one skilled in the art. The results of this assay are expressed as the IC50, the inhibitor concentration causing a 50% decrease in Factor XIIa protease activity.
Factor XIIa activity determinations were made in 50 mM HEPES buffer containing 150 mM NaCl, 5 mM CaCl2, and 0.1% PEG 8000 (polyethylene glycol; JT Baker or Fisher Scientific) at pH 7.4. Determinations were made using purified human Factor XIIa at a final concentration of […] (Sekisui Diagnostics) and the synthetic substrate, n-Acetyl-Lys-Pro-Arg-AFC, TFA salt (Sigma # C6608) at a concentration of 100 μM.
Times required to achieve equilibration between enzyme and inhibitor were determined in control experiments. Initial velocities of product formation in the absence (Vo) or presence of inhibitor (Vi) were measured.
As a reminder, the IC50 is the concentration at which inhibition is half-maximal. Turning to `CC(=O)NCCCC[C@@H](NC1CCCCC1)C(=O)N1CC[C@@H](NC(=O)N2CCC3(CC2)CC3)[C@@H](C(=O)NCc2cccs2)C1` [Compound 24, N-{(3S,4R)-1-(N~6~- acetyl-N~2~- cyclohexyl-D-lysyl)-3-[(thiophen-2-ylmethyl)carbamoyl]pi-peridin-4-yl}-6-azaspiro[2.5]octane-6-carboxamide], the IC50 was found to be 108 nM.

Take `CC(=O)OCCCC[C@@H](NC1CCCCC1)C(=O)N1CC[C@@H](NC(=O)N2CCC3(CC2)CC3)[C@@H](C(=O)NCc2cccs2)C1` [Compound 26, (5R)-6-{(3S,4R)-4-[(6-azaspiro[2.5]oct-6-ylcarbonyl)amino]-3-[(thiophen-2-ylmethy)carbamoyl]pi-peridin-1-yl}-5-(cyclohexylamino)-6-oxohexyl acetate]: the IC50 turned out to be 65.9 nM. On to `CN(C)CCCC[C@H](C(=O)N1CC[C@@H](NC(=O)N2CCCc3ccccc32)[C@@H](C(=O)NCc2cccs2)C1)N(C)C1CCCCC1` [Compound 27, N-{(3S,4R)-1-(N~2~- cyclohexyl-N~2~,N~6~,N~6~- trimethyl-D-lysyl)-3-[(thiophen-2-ylmethyl)carbamoyl]pi-peridin-4-yl}-3,4-dihydroquinoline-1(2H)-carboxamide], for which the IC50 was 110 nM. On to `CN(C)CCCC[C@@H](NC1CCCCC1)C(=O)N1CC[C@@H](NC(=O)N2CCCc3ccccc32)[C@@H](C(=O)NCc2cccs2)C1` [Compound 28, N-{(3S,4R)-1-(N~2~- cyclohexyl-N~6~,N~6~-dimethyl-D-lysyl)-3-[(thiophen-2-ylmethyl)carbamoyl]pi-peridin-4-yl}-3,4-dihydroquinoline-1(2H)-carboxamide], for which the IC50 worked out at 102 nM. The same measure for `Cc1ccc(C(=O)N[C@@H]2CCN(C(=O)[C@@H](CCCCN(C)C)N(C)C3CCCCC3)C[C@@H]2C(=O)NCc2cccs2)c(F)c1` [Compound 29, (3S,4R)-1-(N~2~- cyclohexyl-N~2~,N~6~,N~6~- trimethyl-D-lysyl)-4-{[(2-fluoro-4-methyl-phenyl)carbonyl]amino}-N-(thiophen-2-ylmethyl)piperidine-3-carboxamide]: 37.6 nM. As for `CN(C1CCCCC1)[C@H](CCCCNS(C)(=O)=O)C(=O)N1CC[C@@H](NC(=O)N2CCC3(CC2)CC3)[C@@H](C(=O)NCc2cccs2)C1` [Compound 30, N-{(3S,4R)-1-[N~2~- cyclohexyl-N~2~- methyl-N~6~- (methylsulfonyl)-D-lysyl]-3-[(thiophen-2-ylmethyl)carbamoyl]pi-peridin-4-yl}-6-azaspiro[2.5]octane-6-carboxamide], the IC50 worked out at 50.1 nM. As for `CN(C)CCCC[C@@H](NC1CCC2(CC1)CCN(Cc1ccccc1)C2)C(=O)N1CC[C@@H](NC(=O)N2CCC3(CC2)CC3)[C@@H](C(=O)NCc2cccs2)C1` (stereo partly drawn) [Compound 31, N-{(3S,4R)-1-[N~2~- (2-benzyl-2-azaspiro[4.5]dec-8-yl)-N~6~,N~6~-dimethyl-D-lysyl]-3-[(thiophen-2-ylmethyl)carbamoyl]pi-peridin-4-yl}-6-azaspiro[2.5]octane-6-carboxamide], the figure is 1.5 nM; as for `CN(CCCC[C@@H](NC1CCCCC1)C(=O)N1CC[C@@H](NC(=O)N2CCC3(CC2)CC3)[C@@H](C(=O)NCc2cccs2)C1)S(C)(=O)=O` [Compound 32, N-{(3S,4R)-1-[N~2~- cyclohexyl-N~6~- methyl-N~6~- (methylsulfonyl)-D-lysyl]-3-[(thiophen-2-ylmethyl)carbamoyl]pi-peridin-4-yl}-6-azaspiro[2.5]octane-6-carboxamide], 22.5 nM; as for `CN(C)CCCC[C@H](C(=O)N1CC[C@@H](NC(=O)N2CCC3(CC2)CC3)[C@@H](C(=O)NCc2cccs2)C1)N(C)C1CCCCC1` [Compound 33, N-{(3S,4R)-1-(N~2~- cyclohexyl-N~2~,N~6~,N~6~- trimethyl-D-lysyl)-3-[(thiophen-2-ylmethyl)carbamoyl]pi-peridin-4-yl}-6-azaspiro[2.5]octane-6-carboxamide], 15.1 nM. For the compound `CN(C)CCCC[C@@H](NC1CCCCC1)C(=O)N1CC[C@@H](NC(=O)N2CCC3(CC2)CC3)[C@@H](C(=O)NCc2cccs2)C1` [Compound 34, N-{(3S,4R)-1-(N~2~- cyclohexyl-N~6~,N~6~-dimethyl-D-lysyl)-3-[(thiophen-2-ylmethyl)carbamoyl]pi-peridin-4-yl}-6-azaspiro[2.5]octane-6-carboxamide], the IC50 came out at 5.7 nM.

For `CS(=O)(=O)N(CCCC[C@@H](NC1CCCCC1)C(=O)N1CC[C@@H](NC(=O)N2CCC3(CC2)CC3)[C@@H](C(=O)NCc2cccs2)C1)CC(F)(F)F` [Compound 35, N-{(3S,4R)-1-[N~2~- cyclohexyl-N~6~- (methylsulfonyl)-N~6~- (2,2,2-trifluoroethyl)-D-lysyl]-3-[(thiophen-2-ylmethyl)carbamoyl]pi-peridin-4-yl}-6-azaspiro[2.5]octane-6-carboxamide], the IC50 came to 19.5 nM. The same measure for `O=C(NCc1cccs1)[C@H]1CN(C(=O)[C@@H](CC2CCCCC2)NC2CCCCC2)CC[C@H]1NC(=O)N1CCCC2(CCNC2=O)C1` (stereo partly drawn) [Compound 36, N-((3S,4R)-1-((R)-3-cyclohexyl-2-(cyclohexylamino)pro-panoyl)-3-((thiophen-2-ylmethyl)carbamoyl)pi-peridin-4-yl)-1-oxo-2,7-diazaspiro[4.5]decane-7-carboxamide]: 428 nM.
